# Experimental data published in patent publication US20230212144A1, “5-MEMBERED HETEROARYL DERIVATIVE CONTAINING AT LEAST ONE N, AND PHARMACEUTICAL COMPOSITION FOR PREVENTING OR TREATING MENTAL DISORDERS, CONTAINING SAME AS ACTIVE INGREDIENT” (DAEGU-GYEONGBUK MEDICAL INNOVATION FOUNDATION, priority 2020, published 2023).
# Key:
# [1] = target: serotonin transporter (SERT) (Homo sapiens, UniProt P31645); experiment: Serotonin reuptake inhibition, [3H]-5-HT, cells transfected with 5-HT transporter cDNA; conditions: for Triple reuptake inhibition (Ratio %) SERT: compound 1 μM, relative to control without compound (100%), lower value = stronger inhibition
# [2] = target: norepinephrine transporter (NET) (Homo sapiens, UniProt P23975); experiment: Norepinephrine reuptake inhibition, [3H]-NE, cells transfected with NE transporter cDNA; conditions: for Triple reuptake inhibition (Ratio %) NET: compound 1 μM, relative to control without compound (100%), lower value = stronger inhibition
# [3] = target: dopamine transporter (DAT) (Homo sapiens, UniProt Q01959); experiment: Dopamine reuptake inhibition, [3H]-DA, HEK-293 cells transfected with dopamine transporter cDNA; conditions: for Triple reuptake inhibition (Ratio %) DAT: compound 1 μM, relative to control without compound (100%), lower value = stronger inhibition
# Chain of dopamine transporter (DAT) (Q01959 whole entry, species assumed): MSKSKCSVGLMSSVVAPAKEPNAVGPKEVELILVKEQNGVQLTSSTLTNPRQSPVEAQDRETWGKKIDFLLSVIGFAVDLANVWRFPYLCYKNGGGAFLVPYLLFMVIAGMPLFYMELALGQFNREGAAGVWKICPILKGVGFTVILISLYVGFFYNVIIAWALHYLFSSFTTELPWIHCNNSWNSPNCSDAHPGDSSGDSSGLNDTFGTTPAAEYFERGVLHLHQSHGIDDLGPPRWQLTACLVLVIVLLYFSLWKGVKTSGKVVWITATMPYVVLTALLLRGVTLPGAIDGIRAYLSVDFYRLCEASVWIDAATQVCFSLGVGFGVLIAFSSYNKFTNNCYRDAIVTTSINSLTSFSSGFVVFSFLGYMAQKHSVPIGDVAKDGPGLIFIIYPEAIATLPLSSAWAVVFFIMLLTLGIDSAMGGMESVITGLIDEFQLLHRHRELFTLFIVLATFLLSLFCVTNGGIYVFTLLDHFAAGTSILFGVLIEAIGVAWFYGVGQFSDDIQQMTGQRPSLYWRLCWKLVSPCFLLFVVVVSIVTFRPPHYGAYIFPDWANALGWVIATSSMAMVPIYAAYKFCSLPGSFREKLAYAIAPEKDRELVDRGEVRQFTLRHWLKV
# Description: After removing the medium, each compound of Examples or Comparative Examples diluted to 1 μM in uptake buffer was added to a concentration of 200 μL/well and cultured at 37° C. for 15 minutes. 100 μL of uptake buffer containing 20-30 nM [3H]-DA was added and cultured at 37° C. for 5 minutes. The reaction solution was quickly removed and washed three times with 1 mL ice-cold uptake buffer. After dissolving the resultant in 1% SDS (0.5 mL), the degree of binding of radioisotope-labeled dopamine to the transporter was measured.
# In addition, when evaluating the reuptake inhibitory effect on dopamine, norepinephrine, and serotonin, the same method was performed without treating each compound of Examples or Comparative Examples as a control, the degree of binding of radioisotope-labeled dopamine, norepinephrine, and serotonin to the transporter was measured, and by using this as a reference (100%), the triple reuptake inhibitory effect was evaluated as a relative ratio (Ratio %). That is, in the control group, the binding of dopamine, norepinephrine, and serotonin to transporters is not inhibited, but when each compound of Examples is treated and thus the binding is inhibited, the Ratio % value decreases.
# Chain of norepinephrine transporter (NET) (P23975 whole entry, species assumed): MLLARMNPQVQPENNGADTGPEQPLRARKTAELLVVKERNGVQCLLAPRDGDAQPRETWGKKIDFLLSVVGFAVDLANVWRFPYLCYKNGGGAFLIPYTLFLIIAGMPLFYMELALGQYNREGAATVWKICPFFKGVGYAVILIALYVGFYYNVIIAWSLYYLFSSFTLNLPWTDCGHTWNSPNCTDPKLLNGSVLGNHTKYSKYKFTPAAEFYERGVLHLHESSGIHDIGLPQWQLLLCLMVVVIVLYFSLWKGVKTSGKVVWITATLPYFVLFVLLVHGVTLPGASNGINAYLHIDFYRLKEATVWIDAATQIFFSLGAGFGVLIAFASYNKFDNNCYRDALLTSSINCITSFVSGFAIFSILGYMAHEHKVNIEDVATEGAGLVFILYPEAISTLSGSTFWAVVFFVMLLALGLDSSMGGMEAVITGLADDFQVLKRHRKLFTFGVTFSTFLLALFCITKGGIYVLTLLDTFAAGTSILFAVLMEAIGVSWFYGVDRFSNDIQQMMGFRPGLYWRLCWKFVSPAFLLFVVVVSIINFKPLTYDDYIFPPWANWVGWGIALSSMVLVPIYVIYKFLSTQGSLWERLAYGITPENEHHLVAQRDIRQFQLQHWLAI
# Chain of serotonin transporter (SERT) (P31645 whole entry, species assumed): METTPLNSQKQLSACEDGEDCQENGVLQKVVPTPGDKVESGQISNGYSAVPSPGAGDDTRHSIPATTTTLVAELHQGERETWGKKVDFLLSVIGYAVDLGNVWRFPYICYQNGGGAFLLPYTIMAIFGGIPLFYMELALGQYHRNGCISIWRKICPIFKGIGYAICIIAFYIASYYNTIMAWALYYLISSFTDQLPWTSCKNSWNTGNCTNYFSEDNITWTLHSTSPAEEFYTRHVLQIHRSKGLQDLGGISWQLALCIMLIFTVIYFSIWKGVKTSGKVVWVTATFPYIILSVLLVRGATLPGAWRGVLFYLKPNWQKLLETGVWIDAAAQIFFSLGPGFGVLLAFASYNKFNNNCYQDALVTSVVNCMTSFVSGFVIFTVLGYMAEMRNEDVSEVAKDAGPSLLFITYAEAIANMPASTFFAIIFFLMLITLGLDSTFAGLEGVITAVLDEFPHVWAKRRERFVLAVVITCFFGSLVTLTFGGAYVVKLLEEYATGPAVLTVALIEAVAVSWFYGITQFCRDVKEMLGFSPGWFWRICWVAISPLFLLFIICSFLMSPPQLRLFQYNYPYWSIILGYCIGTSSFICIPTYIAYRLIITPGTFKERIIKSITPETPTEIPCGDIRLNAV
Compound,Triple reuptake inhibition (Ratio %) SERT [1] [%],Triple reuptake inhibition (Ratio %) NET [2] [%],Triple reuptake inhibition (Ratio %) DAT [3] [%],IC50 [1] [nM],IC50 [2] [nM],IC50 [3] [nM]
"COc1cc2cc(-c3nnc(CN4CCC(Cc5ccccc5)CC4)[nH]3)[nH]c2cc1OC [Example 12, 2-(5-((4-benzylpiperidin-1-yl)methyl)-4H-1,2,4-triazol-3-yl)-5,6-dimethoxy-1H-indole]",63.05,3.38,5.96,1150,36,174
"c1ccc(CN2CCN(Cc3nnc(-c4cc5ccccc5[nH]4)[nH]3)CC2)cc1 [Example 4, 2-(5-((4-benzylpiperazin-1-yl)methyl)-4H-1,2,4-triazol-3-yl)-1H-indole]",90.26,64.76,22.39,,,
"c1ccc(CC2CCN(Cc3nnc(-c4ccc5ccccc5c4)[nH]3)CC2)cc1 [Example 21, 4-benzyl-1-((5-(naphthalen-2-yl)-4H-1,2,4-triazol-3-yl)methyl)piperidine]",50.05,27.49,20.41,2090,619,259
"COc1ccc2[nH]c(-c3nnc(CN4CCC(Cc5ccccc5)CC4)[nH]3)cc2c1 [Example 13, 2-(5-((4-benzylpiperidin-1-yl)methyl)-4H-1,2,4-triazol-3-yl)-5-methoxy-1H-indole]",60.60,4.78,10.00,1210,70,
"O=C(O)c1ccc2[nH]c(-c3nnc(CN4CCC(Cc5ccccc5)CC4)[nH]3)cc2c1 [Example 28, 2-(5-((4-benzylpiperidin-1-yl)methyl)-4H-1,2,4-triazol-3-yl)-1H-indol-5-carboxylic acid]",93.63,85.85,65.47,,,
"c1ccc(CC2CCN(Cc3nnc(-c4cc5ccccc5[nH]4)o3)CC2)cc1 [Example 33, 2-((4-benzylpiperidin-1-yl)methyl)-5-(1H-indol-2-yl)-1,3,4-oxadiazole]",103.08,145.38,97.72,,,
"Cc1ccc2c(-c3nnc(CN4CCC(Cc5ccccc5)CC4)[nH]3)c[nH]c2c1 [Example 38, 3-(5-((4-benzylpiperidin-1-yl)methyl)-4H-1,2,4-triazol-3-yl)-6-methyl-1H-indole]",51.55,64.82,31.70,518,361,670
"c1ccc(CC2CCN(Cc3nnc(-c4ccc5c(c4)OCO5)[nH]3)CC2)cc1 [Example 27, 1-((5-(benzo[d][1,3]dioxol-5-yl)-4H-1,2,4-triazol-3-yl)methyl)-4-benzylpiperidine]",59.52,53.55,9.71,968,1990,62
"COc1cccc2cc(-c3nnc(CN4CCC(Cc5ccccc5)CC4)[nH]3)[nH]c12 [Example 19, 2-(5-((4-benzylpiperidin-1-yl)methyl)-4H-1,2,4-triazol-3-yl)-7-methoxy-1H-indole]",81.23,15.80,21.23,1170,188,247
"COC(=O)c1ccc2[nH]c(-c3nnc(CN4CCC(Cc5ccccc5)CC4)[nH]3)cc2c1 [Example 20, methyl 2-(5-((4-benzylpiperidin-1-yl)methyl)-4H-1,2,4-triazol-3-yl)-1H-indol-5-carboxylate]",50.14,38.22,5.14,643,748,80
"c1ccc(C2CCN(Cc3nnc(-c4cc5ccccc5[nH]4)[nH]3)CC2)cc1 [Example 3, 2-(5-((4-phenylpiperidin-1-yl)methyl)-4H-1,2,4-triazol-3-yl)-1H-indole]",95.94,124.39,81.14,,,
"Fc1ccc2[nH]c(-c3nnc(CN4CCC(Cc5ccc(Cl)c(Cl)c5)CC4)[nH]3)cc2c1 [Example 29, 2-(5-((4-(3,4-dichlorobenzyl)piperidin-1-yl)methyl)-4H-1,2,4-triazol-3-yl)-5-fluoro-1H-indole]",72.63,45.28,36.13,,,
"COc1ccc(CC2CCN(Cc3nnc(-c4cc5ccccc5[nH]4)[nH]3)CC2)cc1 [Example 6, 2-(5-((4-(4-methoxybenzyl)piperidin-1-yl)methyl)-4H-1,2,4-triazol-3-yl)-1H-indole]",70.39,88.83,88.63,,,
"Clc1cccc(CC2CCN(Cc3nnc(-c4cc5ccccc5[nH]4)[nH]3)CC2)c1 [Example 8, 2-(5-((4-(3-chlorobenzyl)piperidin-1-yl)methyl)-4H-1,2,4-triazol-3-yl)-1H-indole]",88.65,66.48,32.29,,,
"Cc1ccc2[nH]cc(-c3nnc(CN4CCC(Cc5ccccc5)CC4)[nH]3)c2c1 [Example 39, 3-(5-((4-benzylpiperidin-1-yl)methyl)-4H-1,2,4-triazol-3-yl)-5-methyl-1H-indole]",58.07,99.14,79.20,,,

# Continued, values first:
Triple reuptake inhibition (Ratio %) SERT [1] [%],Triple reuptake inhibition (Ratio %) NET [2] [%],Triple reuptake inhibition (Ratio %) DAT [3] [%],IC50 [1] [nM],IC50 [2] [nM],IC50 [3] [nM],Compound
82.77,48.25,59.39,,,,"FC(F)(F)Oc1ccc(-c2nnc(CN3CCC(Cc4ccc(Cl)c(Cl)c4)CC3)[nH]2)cc1 [Example 61, 4-(3,4-dichlorobenzyl)-1-((5-(4-(trifluoromethoxy)phenyl)-4H-1,2,4-triazol-3-yl)methyl)piperidine]"
21.98,112.38,72.49,,,,"COc1cccc2c(-c3nnc(CN4CCC(Cc5ccc(Cl)c(Cl)c5)CC4)[nH]3)c[nH]c12 [Example 45, 3-(5-((4-(3,4-dichlorobenzyl)piperidin-1-yl)methyl)-4H-1,2,4-triazol-3-yl)-7-methoxy-1H-indole]"
61.70,95.63,94.44,1870,,,"COC(=O)c1cccc2c(-c3nnc(CN4CCC(Cc5ccc(Cl)c(Cl)c5)CC4)[nH]3)c[nH]c12 [Example 60, methyl 3-(5-((4-(3,4-dichlorobenzyl)piperidin-1-yl)methyl)-4H-1,2,4-triazol-3-yl)-1H-indol-7-carboxylate]"
28.87,92.59,80.58,,,,"COc1ccc2[nH]cc(-c3nnc(CN4CCC(Cc5ccc(Cl)c(Cl)c5)CC4)[nH]3)c2c1 [Example 44, 3-(5-((4-(3,4-dichlorobenzyl)piperidin-1-yl)methyl)-4H-1,2,4-triazol-3-yl)-5-methoxy-1H-indole]"
88.15,52.40,38.97,,,,"FC(F)(F)Oc1cccc(-c2nnc(CN3CCC(Cc4ccccc4)CC3)[nH]2)c1 [Example 54, 4-benzyl-1-((5-(3-(trifluoromethoxy)phenyl)-4H-1,2,4-triazol-3-yl)methyl)piperidine]"
79.73,36.41,52.96,,,,"FC(F)(F)c1ccc(-c2nnc(CN3CCC(Cc4ccc(Cl)c(Cl)c4)CC3)[nH]2)cc1 [Example 62, 4-(3,4-dichlorobenzyl)-1-((5-(4-(trifluoromethyl)phenyl)-4H-1,2,4-triazol-3-yl)methyl)piperidine]"
